We go through 18 compounds from patent US9394329B2, “Glucopyranosyl derivatives and their uses in medicine” (Sunshine Lake Pharma Co., Ltd., priority 2013, dated 2016).

For one test, the target named is T1, SGLT-2 (Homo sapiens, UniProt P31639).
T1 construct: expressed in transfected cells
T1 sequence (P31639 1-672): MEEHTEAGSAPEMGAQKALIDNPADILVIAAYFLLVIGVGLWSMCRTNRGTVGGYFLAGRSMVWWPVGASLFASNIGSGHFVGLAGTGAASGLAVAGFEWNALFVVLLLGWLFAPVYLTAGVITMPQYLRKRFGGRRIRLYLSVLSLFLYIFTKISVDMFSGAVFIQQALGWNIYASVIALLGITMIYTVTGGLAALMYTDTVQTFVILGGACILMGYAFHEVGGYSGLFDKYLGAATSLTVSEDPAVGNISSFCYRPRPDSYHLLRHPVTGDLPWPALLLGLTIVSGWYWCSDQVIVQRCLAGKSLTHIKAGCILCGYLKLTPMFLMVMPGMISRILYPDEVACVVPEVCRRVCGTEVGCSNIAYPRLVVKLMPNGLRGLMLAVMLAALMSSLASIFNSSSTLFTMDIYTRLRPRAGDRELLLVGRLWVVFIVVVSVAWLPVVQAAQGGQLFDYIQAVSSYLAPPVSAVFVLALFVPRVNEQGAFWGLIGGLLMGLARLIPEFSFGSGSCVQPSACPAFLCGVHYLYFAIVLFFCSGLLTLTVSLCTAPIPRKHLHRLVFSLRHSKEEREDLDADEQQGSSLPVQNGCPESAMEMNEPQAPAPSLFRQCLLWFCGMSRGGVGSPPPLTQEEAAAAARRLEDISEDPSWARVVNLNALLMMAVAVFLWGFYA
In words: SGLT-2 activity measurement ([14C]-AMG uptake in CHO cells expressing human SGLT2). To be noted: CHO cells expressing human SGLT2, 0.5 μm [14C]-AMG, 37° C. for 1 hour. Format: cell-based. An excerpt:
(§1) The following methods can be used to determine the inhibitory activity of the compounds described in the invention for SGLT-1 and SGLT-2.
(§2) ^14C-AMG solution was purchased from PerkinElmer, Cat. No. NEZ080001MC.
(§3) α-Methylglucoside was purchased from Sigma, Cat. No. M9376-100G.
(§4) N-methyl-D-glucosamine was purchased from Sigma, Cat. No. M2004-100G.
(§5) Phloridzin was purchased from Sigma, Cat. No. P3449-1G.
(§6) 96-Well plate was purchased from Corning, Cat. No. 3903.
(§7) Mock-transfected FIP-in CHO cells (3×10^4 cells) and expressing human SGLT1/SGLT2 CHO cells were seeded into 96-well plates respectively. The cells were incubated for 12 hours. Each well of the 96-well plates was washed with 150 μL of sodium-free buffer once. To each well was added 50 μL of sodium-containing buffer containing test compounds having different concentrations and […] [^14C]-AMG. The incubation mixture was incubated at 37° C. for 1 hour. To each well was added 150 μL of precooled sodium-free buffer to terminate the reaction. The cell pellet was washed with sodium-free buffer three times and the residual liquid in well was removed. To each well was added 20 μL of precooled 100 mM NaOH. The 96-well plates were vibrated at 900 rpm for 5 minutes. Scintillation fluid (80 μL) was added to each well which was then vibrated at 600 rpm for 5 minutes. The amount of ^14C-AMG was quantitatively detected using liquid scintillation.

A further test addresses T2, SGLT-1 (Homo sapiens, UniProt P13866).
T2 construct: expressed in transfected cells
T2 sequence (P13866 1-664): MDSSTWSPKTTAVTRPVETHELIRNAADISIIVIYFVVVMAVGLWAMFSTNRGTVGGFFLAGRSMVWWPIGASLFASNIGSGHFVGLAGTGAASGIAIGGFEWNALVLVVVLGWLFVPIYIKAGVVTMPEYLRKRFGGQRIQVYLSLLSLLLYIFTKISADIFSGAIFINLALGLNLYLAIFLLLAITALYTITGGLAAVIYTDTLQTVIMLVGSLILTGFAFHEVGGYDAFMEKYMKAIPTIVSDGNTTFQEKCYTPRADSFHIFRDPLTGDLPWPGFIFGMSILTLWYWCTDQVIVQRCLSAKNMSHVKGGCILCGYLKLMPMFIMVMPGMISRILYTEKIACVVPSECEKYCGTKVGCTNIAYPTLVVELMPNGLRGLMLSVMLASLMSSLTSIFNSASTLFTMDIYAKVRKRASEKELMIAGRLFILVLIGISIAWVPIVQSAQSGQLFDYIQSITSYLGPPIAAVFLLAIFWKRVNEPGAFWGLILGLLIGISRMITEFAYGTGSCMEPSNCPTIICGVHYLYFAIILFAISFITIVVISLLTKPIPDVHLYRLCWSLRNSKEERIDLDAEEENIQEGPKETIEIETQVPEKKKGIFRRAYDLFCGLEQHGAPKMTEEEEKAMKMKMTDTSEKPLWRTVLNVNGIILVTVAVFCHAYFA
In words: SGLT-1 activity measurement ([14C]-AMG uptake in CHO cells expressing human SGLT1). To be noted: CHO cells expressing human SGLT1, 0.5 μm [14C]-AMG, 37° C. for 1 hour. Format: cell-based.
Description: as §1, §2, §3, §4, §5, §6, §7

Broadly, the IC50 is the concentration at which inhibition is half-maximal. A high value points to a need for much substance. For the compound `CCOc1ccc(Cc2cc([C@]34OC[C@](C(C)O)(O3)[C@@H](O)[C@H](O)[C@H]4O)ccc2Cl)cc1` (stereo partly drawn) [Example 1, (1R,2S,3S,4R,5S)-5-[4-Chloro-3-[(4-ethoxyphenyl)methyl]phenyl]-1-(1-hydroxyethyl)-6,8-dioxabicyclo[3.2.1]octane-2,3,4-triol], the IC50 was 1.65 nM at SGLT-2 and 260 nM against SGLT-1.
On SGLT-2, `CCOc1ccc(Cc2cc([C@]34OC[C@](C5CO5)(O3)[C@@H](O)[C@H](O)[C@H]4O)ccc2Cl)cc1` (stereo partly drawn) [Example 26, (1S,2S,3S,4R,5S)-5-[4-chloro-3-[(4-ethoxyphenyl)methyl]phenyl]-1-(oxiran-2-yl)-6,8-dioxabicyclo[3.2.1]octane-2,3,4-triol] displayed a half-inhibitory concentration (IC50) of 6.85 nM.
On the same count and under the same terms, for `CCOC(=O)OC(C)[C@@]12CO[C@@](c3ccc(Cl)c(Cc4ccc(OCC)cc4)c3)(O1)[C@H](O)[C@@H](O)[C@@H]2O` (stereo partly drawn) [Example 12, 1-[(1S,2S,3S,4R,5S)-5-[4-Chloro-3-[(4-ethoxyphenyl)methyl]phenyl]-2,3,4-trihydroxy-6,8-dioxabicyclo[3.2.1]octan-1-yl]ethyl ethyl carbonate] the value was 12.7 nM.
Turning to `CC(C)(O)[C@@]12CO[C@@](c3ccc(Cl)c(Cc4ccc(OCC(F)(F)F)cc4)c3)(O1)[C@H](O)[C@@H](O)[C@@H]2O` [Example 18, (1S,2S,3S,4R,5S)-5-[4-Chloro-3-[[4-(2,2,2-trifluoroethoxyl)phenyl]methyl]phenyl]-1-(1-hydroxy-1-methyl-ethyl)-6,8-dioxabicyclo[3.2.1]octane-2,3,4-triol], the figures for the IC50 on SGLT-2 and against SGLT-1 were 3.66 nM and 350 nM, respectively.
Compound `CCOc1ccc(Cc2cc([C@]34OC(C)[C@](CO)(O3)[C@@H](O)[C@H](O)[C@H]4O)ccc2Cl)cc1` (stereo partly drawn) [Example 8, (1R,2S,3S,4R,5S)-5-[4-Chloro-3-[(4-ethoxyphenyl)methyl]phenyl]-1-(hydroxymethyl)-7-methyl-6,8-dioxabicyclo[3.2.1]octane-2,3,4-triol] showed a half-inhibitory concentration (IC50) against SGLT-2 of 51.8 nM.
`CC#CC(O)[C@@]12CO[C@@](c3ccc(Cl)c(Cc4ccc(OCC)cc4)c3)(O1)[C@H](O)[C@@H](O)[C@@H]2O` (stereo partly drawn) [Example 5, (1R,2S,3S,4R,5S)-5-[4-chloro-3 [(4-ethoxyphenyl)methyl]phenyl]-1-(1-hydroxybut-2-ynyl)-6,8-dioxabicyclo[3.2.1]octane-2,3,4-triol] showed a concentration for half-maximal inhibition (IC50) at SGLT-1 of 840 nM. That is a sub-micromolar value.
Turning to `CCOc1ccc(Cc2cc([C@]34OC[C@](C(C)O)(O3)[C@@H](O)[C@H](O)[C@H]4O)ccc2Cl)c(F)c1F` (stereo partly drawn) [Example 23, (1R,2S,3S,4R,5S)-5-[4-Chloro-3-[(4-ethoxy-2,3-difluoro-phenyl)methyl]phenyl]-1-(1-hydroxyethyl)-6,8-dioxabicyclo[3.2.1]octane-2,3,4-triol], the IC50 worked out at 2.28 nM on SGLT-2 and 560 nM at SGLT-1.
At SGLT-2, `CCOc1ccc(Cc2cc([C@]34OCC(C(O)CC)(O3)[C@@H](O)[C@H](O)[C@H]4O)ccc2Cl)cc1` (stereo in doubt) [Example 3, (1S,2S,3S,4R,5S)-5-[4-Chloro-3 [(4-ethoxyphenyl)methyl]phenyl]-1-(1-hydroxypropyl)-6,8-dioxabicyclo[3.2.1]octane-2,3,4-triol] came in with an IC50 of 9.8 nM.
`CCOc1ccc(Cc2cc([C@]34OC[C@](C(C)O)(O3)[C@H](O)[C@H](O)[C@H]4O)ccc2Cl)cc1` (stereo partly drawn) [Example 28, (1R,2R,3S,4R,5S)-5-[4-Chloro-3-[(4-ethoxyphenyl)methyl]phenyl]-1-(1-hydroxyethyl)-6,8-dioxabicyclo[3.2.1]octane-2,3,4-triol]: the 50% inhibitory concentration (IC50) against SGLT-2 amounted to 12.6 nM; against SGLT-1 it was 3400 nM.
`CCOc1ccc(Cc2cc([C@]34OC[C@](C5CNC(=O)O5)(O3)[C@@H](O)[C@H](O)[C@H]4O)ccc2Cl)cc1` (stereo partly drawn) [Example 27, 5-((1S,2S,3S,4R,5S)-5-(4-Chloro-3-(4-ethoxybenzyl)phenyl)-2,3,4-trihydroxy-6,8-dioxabicyclo[3.2.1]octan-1-yl)oxazolidin-2-one]: half-maximal inhibition on SGLT-2 (IC50) was put at 13.8 nM.
As for `CCOc1ccc(Cc2cc([C@]34OC[C@](C(C)OC(=O)OC(C)C)(O3)[C@@H](O)[C@H](O)[C@H]4O)ccc2Cl)cc1` (stereo partly drawn) [Example 13, 1-[(1S,3S,4R,5S)-5-[4-Chloro-3-[(4-ethoxyphenyl)methyl]phenyl]-2,3,4-trihydroxy-6,8-dioxabicyclo[3.2.1]octan-1-yl]ethyl isopropyl carbonate], the IC50 at SGLT-2 worked out at 44.1 nM; against SGLT-1, 3760 nM.
`CCOc1ccc(Cc2cc([C@]34OC[C@](C(O)CO)(O3)[C@@H](O)[C@H](O)[C@H]4O)ccc2Cl)cc1` (stereo partly drawn) [Example 7, (1R,2S,3S,4R,5S)-5-[4-Chloro-3-[(4-ethoxyphenyl)methyl]phenyl]-1-(1,2-dihydroxyethyl)-6,8-dioxabicyclo[3.2.1]octane-2,3,4-triol]: the concentration for half-maximal inhibition (IC50) on SGLT-2 amounted to 4.96 nM.
On to `CCOc1ccc(Cc2cc([C@]34OC[C@](C5(O)CC5)(O3)[C@@H](O)[C@H](O)[C@H]4O)ccc2Cl)cc1` [Example 6, (1S,2S,3S,4R,5S)-5-[4-Chloro-3 [(4-ethoxyphenyl)methyl]phenyl]-1-(1-hydroxycyclopropyl)-6,8-dioxabicyclo[3.2.1]octane-2,3,4-triol], for which the IC50 against SGLT-2 worked out at 3.6 nM; on SGLT-1, 26800 nM.
With `CCOc1ccc(Cc2cc([C@]34OC[C@](C(O)CNC)(O3)[C@@H](O)[C@H](O)[C@H]4O)ccc2Cl)cc1` (stereo partly drawn) [Example 11, (1R,2S,3S,4R,5S)-5-[4-chloro-3-[(4-ethoxyphenyl)methyl]phenyl]-1-[1-hydroxy-2-(methylamino)ethyl]-6,8-dioxabicyclo[3.2.1]octane-2,3,4-triol], on SGLT-2, the 50% inhibitory concentration (IC50) turned out to be 498 nM.
Same read-out and setting: for `CCOc1ccc(Cc2cc([C@]34OC[C@](C(O)CN)(O3)[C@@H](O)[C@H](O)[C@H]4O)ccc2Cl)cc1` (stereo partly drawn) [Example 10, (1R,2S,3S,4R,5S)-1-(2-Amino-1-hydroxy-ethyl)-5-[4-chloro-3-[(4-ethoxyphenyl)methyl]phenyl]-6,8-dioxabicyclo[3.2.1]octane-2,3,4-triol] the value was 3730 nM; for `CCOc1ccc(Cc2cccc([C@]34OC[C@](C(C)O)(O3)[C@@H](O)[C@H](O)[C@H]4O)c2)cc1` (stereo partly drawn) [Example 30, (1R,2S,3S,4R,5S)-5-[3-[(4-Ethoxyphenyl)methyl]phenyl]-1-(1-hydroxyethyl)-6,8-dioxabicyclo[3.2.1]octane-2,3,4-triol], 12.1 nM.
On the same count and under the same terms, for `CCOc1ccc(C(O)c2cc([C@]34OC[C@](C(C)O)(O3)[C@@H](O)[C@H](O)[C@H]4O)ccc2Cl)cc1` (stereo partly drawn) [Example 29, (1R,2S,3S,4R,5S)-5-[4-chloro-3-[(4-ethoxyphenyl)-hydroxy-methyl]phenyl]-1-(1-hydroxyethyl)-6,8-dioxabicyclo[3.2.1]octane-2,3,4-triol] the value was 1.46 nM; for `CCOc1ccc(Cc2cc([C@]34OC[C@](C(C)(C)O)(O3)[C@@H](O)[C@H](O)[C@H]4O)ccc2Cl)c(F)c1F` [Example 24, (1S,2S,3S,4R,5S)-5-[4-Chloro-3-[(4-ethoxy-2,3-difluoro-phenyl)methyl]phenyl]-1-(1-hydroxy-1-methyl-ethyl)-6,8-dioxabicyclo[3.2.1]octane-2,3,4-triol], 2.19 nM.
